Data: article PMC12592173, “Targeted degradation of EGFR 19Del by PROTACs suppresses tumor growth in non-small-cell lung cancer” (Frontiers in Pharmacology, 2025)
Where “and” joins values, the source holds several entries; their conditions need not be identical. Equal values may be shown once. Entries after “also recorded” stand apart in the source; their conditions may differ. Read-outs that look alike come from different tables or passages of the source.

How the values were obtained:
[1] = system: EGFR^Del19; conditions: HCC827 cells; ref Zhao et al., 2022; cited from earlier work
[2] = system: HCC827 cells; conditions: ref Zhao et al., 2022; cited from earlier work
[3] = system: HCC827 cells; experiment: Cell viability (CCK-8) in HCC827 cells; assay type: cell-based, human; conditions: for IC50: Homo sapiens, CCK-8
Description: (§1) The viability of cells was determined using Cell Counting Kit-8 (CCK-8; Dojindo), and IC50 was calculated using GraphPad Prism (version 6.0). For colony formation assays, cells (1 × 10^3 cells/well) seeded in 24-well plates were treated with different concentrations of compounds and replaced with fresh media with compounds every 4 days. After 7 days, the cells were washed with PBS, fixed with methanol, and stained with 0.1% crystal violet solution.

[4] = molecular target: T1, EGFR^L858R/T790M protein (Homo sapiens, UniProt P00533, L858R/T790M); experiment: Immunoblots of EGFR in H1975 cells; assay type: cell-based; conditions: H1975 cell line, up to 1 μM, 24 h
T1 construct: nor the EGFR^L858R/T790M protein in the H1975 cell line, up to 1 μM; host or cells: H1975
Description: (§2) Cells at 70%–90% confluence were lysed in RIPA buffer with complete protease inhibitor cocktail (Roche Applied Science, Penzberg, Germany). Lysates were quantified, separated on SDS-PAGE gels, and transferred onto PVDF membranes, followed by the blockade with 5% milk in TBS+ 0.1% Tween-20 buffer for 1 h at room temperature. The following primary antibodies were used: anti-EGFR (1:50000, ABclonal Technology, Wuhan, China), anti-pEGFR (Tyr1068, […], Cell Signaling Technology, MA, United States), anti-AKT (1:10000, ABclonal Technology, Wuhan, China), anti-pAKT (1:10000, ABclonal Technology, Wuhan, China), and anti-β-actin (1:10000, ABclonal Technology, Wuhan, China). Protein bands were detected using Tanon High-signal ECL Western Blotting Substrate (Tanon Science and Technology Co., Ltd., Shanghai, China). The band density of the protein of interest was quantified using ImageJ.

[5] = system: H1975 cells; experiment: Cell viability (CCK-8) in H1975 cells; assay type: cell-based; conditions: up to 1 μM, 96 h
Description: as §1, with “Cells (5 × 10^3 for 48 h or 1 × 10^3 for 96 h) were seeded in 96-well plates, allowed to attach overnight, and then incubated with various concentrations of compounds for 48 h or 96 h. The” for “The”

[6] = system: H1299 cells; experiment: Cell viability (CCK-8) in H1299 cells; assay type: cell-based; conditions: up to 1 μM, 96 h
Description: as §1, with “Cells (5 × 10^3 for 48 h or 1 × 10^3 for 96 h) were seeded in 96-well plates, allowed to attach overnight, and then incubated with various concentrations of compounds for 48 h or 96 h. The” for “The”

[7] = system: pEGFR and pAKT; experiment: Western blot of downstream signaling in HCC827 cells; assay type: cell-based, human
Description: as §2

[8] = molecular target: EGFR^WT protein (Homo sapiens, UniProt P00533); experiment: Immunoblots of EGFR in H1299, H460 and HeLa cells; assay type: cell-based; conditions: H1299, H460 and HeLa cell lines, up to 1 μM, 24 h
Description: as §2

[9] = system: HeLa cells; experiment: Cell viability (CCK-8) in HeLa cells; assay type: cell-based; conditions: up to 1 μM, 96 h
Description: as §1, with “Cells (5 × 10^3 for 48 h or 1 × 10^3 for 96 h) were seeded in 96-well plates, allowed to attach overnight, and then incubated with various concentrations of compounds for 48 h or 96 h. The” for “The”

[10] = molecular target: T2, EGFR^Del19 (Homo sapiens, UniProt P00533+Q96SW2, DEL746-750); experiment: Western blot of EGFR degradation in HCC827 cells; assay type: cell-based; parameters: host or cells: HCC827; conditions: for EGFR degradation (%): HCC827, 24 h, average of two independent experiments, NA = not active; for Dmax: dose-response; for DC50: 24 h treatment; for EGFR protein remaining under cycloheximide: HCC827, cycloheximide 100 μg/mL + 10 nM compound
Description: HCC827 and H1975 cell lines were purchased from ATCC (United States) and cultured according to the manuals. Cells were grown in monolayers in appropriate media supplemented with 10% fetal bovine serum and 1% antibiotic/antimycotic solution.
as §2

[11] = molecular target: T3, EGFR^L858R (Homo sapiens, UniProt P00533, L858R); experiment: Western blot of EGFR degradation in Ba/F3 cells stably expressing EGFR^L858R; assay type: cell-based; conditions: 24 h
T3 construct: expressed in transfected cells; host or cells: Ba/F3 (lentiviral pLVX-EGFR^L858R, puromycin selected)
Description: HCC827 and H1975 cell lines were purchased from ATCC (United States) and cultured according to the manuals. Cells were grown in monolayers in appropriate media supplemented with 10% fetal bovine serum and 1% antibiotic/antimycotic solution. Ba/F3 cells stably expressing EGFR^L858R were obtained by infection with lentivirus produced by co-transfection of pLVX-EGFR^L858R, psPAX2, and pMD2.G into 293T cells, followed by selection with puromycin.
as §2

[12] = molecular target: T2, EGFR^Del19; experiment: Western blot of dissected HCC827 xenograft tumors; assay type: in vivo, mouse; parameters: from tissue; host or cells: HCC827 xenograft tumours in female BALB/c nude mice; conditions: 30 mg/kg intraperitoneal
Description: as §2
Female BALB/c nude mice (5–6 weeks old) were purchased from Changzhou Cavens Laboratory Animal Co., Ltd. (China) and housed under pathogen-free conditions. HCC827 cells (5 × 10^6) suspended in 150 μL PBS were inoculated subcutaneously on the left flank of the mouse. When tumor volume reached an average of 70–80 mm^3, mice were randomly assigned to two groups (three mice in each group). […] The tumor volume was calculated as follows: tumor volume (mm^3) = (length × width^2)/2. […]

[13] = Mouse weights in HCC827 xenograft study; assay type: in vivo; conditions: 30 mg/kg intraperitoneal, repeated and one-time dosing
Description: (§3) Female BALB/c nude mice (5–6 weeks old) were purchased from Changzhou Cavens Laboratory Animal Co., Ltd. (China) and housed under pathogen-free conditions. HCC827 cells (5 × 10^6) suspended in 150 μL PBS were inoculated subcutaneously on the left flank of the mouse. When tumor volume reached an average of 70–80 mm^3, mice were randomly assigned to two groups (three mice in each group). Compound 14 (30 mg/kg, dissolved in 40% PEG 400 and 5% Tween-80) or vehicle (40% PEG 400 and 5% Tween-80) was administered to mice via intraperitoneal injection every 2 days for 21 days. The tumor volume was calculated as follows: tumor volume (mm^3) = (length × width^2)/2. All animal experiments were approved by the Ethics Committee for laboratory animals, The Nanjing Han & Zaenker Cancer Institute (File number: OGKQSPF/SQ-112).

[14] = system: HCC827 cells; experiment: Colony formation assay in HCC827 cells; assay type: cell-based, human; conditions: HCC827, 7 days
Description: as §1, with “Cells (5 × 10^3 for 48 h or 1 × 10^3 for 96 h) were seeded in 96-well plates, allowed to attach overnight, and then incubated with various concentrations of compounds for 48 h or 96 h. The” for “The”

[15] = system: HCC827 cells; experiment: Apoptosis assay (Annexin V-FITC/PI, flow cytometry); assay type: cell-based, human; conditions: HCC827, 10 nM, 48 h
From the text: The percentage of apoptotic cells in total cells was designated as the apoptotic index.

[16] = system: HCC827 human tumor xenograft; experiment: HCC827 xenograft tumor growth in BALB/c nude mice; assay type: in vivo, mouse
Description: as §3, with “Compound 14 (30 mg/kg, dissolved in 40% PEG 400 and 5% Tween-80) or vehicle (40% PEG 400 and 5% Tween-80) was administered to mice via intraperitoneal injection every 2 days for 21 days.” left out

[17] = HCC827, 48 h, HCC827, 48 h incubation
[18] = HCC827, 96 h, HCC827, 96 h incubation

Row | SMILES | IC50 [3, 17] [nM] | IC50 [3, 18] [nM] | Degradation of EGFR^L858R/T790M protein [4] | Effect on viability [5] | Effect on viability [6] | Levels of pEGFR and pAKT [7] | Degradation of EGFR^WT protein [8] | Effect on viability [9] | EGFR degradation (%) ([10]; 10 nM) | Earliest time at which EGFR^Del19 degradation observed ([10]; HCC827 cells, 10 nM) [h] | Dmax ([10]; HCC827 cells, 24 h) [%] | DC50 ([10]; HCC827 cells) | further results
1 | C=CC(=O)N1CCC[C@H](n2c(Nc3ccccc3)nc3cnc(Nc4ccc(N5CCN(CCCCCCCC(=O)N[C@H](C(=O)N6C[C@H](O)C[C@H]6C(=O)N[C@@H](C)c6ccc(-c7scnc7C)cc6)C(C)(C)C)CC5)cc4)nc32)C1 [CP17] | – | – | – | – | – | – | – | – | – | – | – | – | DC50 [1]: 0.49 nM; IC50 [2]: 1.6 nM
2 | O=C1CCC(N2C(=O)c3ccc(N4CCN(CCN5CCN(CCCOc6cc7ncnc(Nc8ccc(F)c(Cl)c8)c7cc6OCCCN6CCOCC6)CC5)CC4)cc3C2=O)C(=O)N1 (stereo not drawn) [Compound 12] | ~30.7 | ~25.6 | neither compound degraded | did not affect the viability | did not affect the viability | markedly reduced | neither compound degraded | did not affect the viability | 60.0% ± 6.9% and 60.0 ± 6.9% | 2 | 85.1 | 1.94 nM | –
3 | COc1cc2c(Nc3ccc(F)c(Cl)c3)ncnc2cc1OCCCN1CCN(CCN2CCN(c3ccc4c(c3)C(=O)N(C3CCC(=O)NC3=O)C4=O)CC2)CC1 (stereo not drawn) [Compound 14] | ~8.29 | 4.91 | neither compound degraded | not affecting the viability; also recorded: did not affect the viability | not affecting the viability; also recorded: did not affect the viability | markedly reduced; also recorded: more marked decreases | no effect; also recorded: neither compound degraded; also recorded: No significant degradation | not affecting the viability; also recorded: did not affect the viability | 66.3% ± 3.5% and 66.3 ± 3.5% | 2 | 91.2 | 0.26 nM and 0.261 nM | DC50 ([11]; Ba/F3 cells stably expressing EGFR^L858R): 20.6 nM; Degradation of EGFR^L858R compared with MS154 ([11]; Ba/F3 cells): remarkable improvements; Proliferation after compound removal ([3]; HCC827, 10 nM for 8 h, washed, fresh media 24-96 h): almost completely stopped proliferating; also recorded: completely ceased proliferation; Proliferation of HCC827 cells versus control vehicle ([3]; different concentrations): markedly attenuated the proliferation; EGFR^Del19 protein in tumors in vivo [12]: effectively degraded; Signs of wasting (mouse weights) [13]: None of the mice showed signs of wasting; Colony formation [14]: fewer and smaller colonies; Increase in the number of apoptotic cells [15]: at least a two-fold increase; Mean tumor volume ([16]; 30 mg/kg intraperitoneal every 2 days for 21 days): 56.58 ± 10.91 mm^3; Mean tumor volume inhibition ([16]; one-time intraperitoneal injection 30 mg/kg, 18 days after treatment, versus vehicle): 79%; EGFR protein remaining under cycloheximide ([10]; 4 h): 34.5%; EGFR protein remaining under cycloheximide ([10]; 8 h): 12.5%; Dmax at 0.01 µM ([10]; HCC827 cells, 10 nM, after 24 h of incubation, read-out: Maximum degradation (Dmax) in time course): 85%; Duration of sustained EGFR^Del19 degradation ([10]; HCC827 cells, 10 nM, continuous incubation): 96 h; Duration of EGFR^Del19 reduction after compound removal ([10]; HCC827 cells, 8 h incubation with 10 nM, then washout): over 72 h; Degradation of EGFR^Del19 compared with MS154 ([10]; HCC827 cells, 24 h): remarkable improvements
